The target of the assay is hMAT2A (Homo sapiens (Human), UniProt P31153). Kind of assay: Malachite Green Assay (MAT2A enzyme inhibition). Format: biochemical. The settings on record: hMAT2A 50 nM, substrates 500 uM each, 1 hour. The procedure: The ability of the compound of present disclosure to inhibit MAT2A enzyme was determined using the Malachite Green or Phosphate Sensor Fluorescence Assay described below.
hMAT2A, sequence (P31153 whole entry): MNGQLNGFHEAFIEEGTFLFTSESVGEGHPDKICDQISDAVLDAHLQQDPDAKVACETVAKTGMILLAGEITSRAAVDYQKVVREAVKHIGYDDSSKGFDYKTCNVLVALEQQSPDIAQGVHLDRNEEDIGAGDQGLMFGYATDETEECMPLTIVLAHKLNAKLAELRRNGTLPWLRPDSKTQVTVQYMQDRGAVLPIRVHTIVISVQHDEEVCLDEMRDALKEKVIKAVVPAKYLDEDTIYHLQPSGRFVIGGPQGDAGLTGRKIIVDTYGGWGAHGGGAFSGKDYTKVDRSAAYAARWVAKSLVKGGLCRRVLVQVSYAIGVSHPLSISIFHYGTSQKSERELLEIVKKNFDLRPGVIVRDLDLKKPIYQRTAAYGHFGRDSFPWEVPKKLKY
L-methionine Substrate: Alfa Aesar catalog #J61904
ATP Substrate: Alfa Aesar cat #J60336
Malachite Green Detection Reagent: Millipore Sigma catalog #MAK307-1KT
Assay buffer: 50 mM Tris, pH 7.5/50 mM KCl/10 mM MgCl2/0.01% Brij-35/1 mM DTT/0.1% BGG
The plate was centrifuged at 1000 rpm for 1 minute and then incubated at room temperature for 1 hour. 5 μL of malachite green detection reagent was added to all the test wells and the plate was centrifuged at 1000 rpm for 1 minute and then incubated at room temperature for 30 minutes. The plate was read for absorbance at 620 nm on a plate reader (e.g., Infinite M1000).
For the compound `CNc1nc(=O)n(-c2ccccc2)c2cc(Cl)cc(F)c12`, the IC50 is less than 200 nM.

`O=c1nc(Nc2ccccn2)c2ccc(Cl)cc2n1-c1ccccc1` [Example 32, 7-chloro-1-phenyl-4-(pyridin-2-yl-amino)quinazolin-2(1H)-one]: the IC50 lay within 200 to 500 nM. With `CNc1nc(=O)n(-c2nccs2)c2cc(Cl)ccc12` [Example 17, 7-chloro-4-(methylamino)-1-(thiazol-2-yl)-quinazolin-2(1H)-one], the IC50 is less than 200 nM. As for `CNc1nc(=O)n(-c2ccccn2)c2cc(Cl)ccc12`, the IC50 was in the range of 200 to 500 nM. Take `CN(C)c1nc(=O)n(-c2cccc(CCOc3ccccc3)c2)c2cc(Cl)ccc12` [Example 75, 7-chloro-4-(dimethylamino)-1-(3-(2-phenoxyethyl)phenyl)quinazolin-2(1H)-one]: the IC50 was less than 200 nM.

`CNc1nc(=O)n(-c2cncnc2)c2cc(Cl)ccc12` registered an IC50 of less than 200 nM. Compound `O=c1nc(N2CCC2)c2ccc(Cl)cc2n1-c1cc(O)cc(F)c1` [Example 38, 4-azetidinyl-7-chloro-1-(5-fluoro-3-hydroxy-phenyl)hydroquinazolin-2-one] returned an IC50 of less than 200 nM. As for `O=c1nc(N[C@H]2CCOC2)c2ccc(Cl)cc2n1-c1ccccc1` [Example 22, (S)-7-chloro-1-phenyl-4-((tetrahydro-furan-3-yl)amino)-quinazolin-2(1H)-one], the figure is 200 to 500 nM; as for `CN(C)c1nc(=O)n(-c2ccc(F)cc2)c2cc(Cl)ccc12` [Example 36, 4-(dimethylamino)-7-chloro-1-(4-fluorophenyl)-hydroquinazolin-2-one], less than 200 nM; as for `CNc1nc(=O)n(-c2cccc(Cl)c2)c2cc(Cl)ccc12` [Example 56, 7-Chloro-1-(3-chlorophenyl)-4-(methylamino)hydroquinazolin-2-one], less than 200 nM.

As for `CNc1nc(=O)n(-c2cccc(F)c2)c2cc(Cl)ccc12` [Example 61, 7-chloro-1-(3-fluorophenyl)-4-(methylamino)quinazolin-2(1H)-one], the IC50 was less than 200 nM. In the case of `CN(C)CCNc1nc(=O)n(-c2ccccc2)c2cc(Cl)ccc12` [Example 64, 7-chloro-4-((2-(dimethylamino)ethyl)-amino)-1-phenylquinazolin-2(1H)-one], the 50% inhibitory concentration (IC50) lay in the range of 1000 to 10000 nM. Compound `Nc1nc(=O)n(-c2ccccc2)c2cc(Cl)ccc12` [Example 59, 4-amino-7-chloro-1-phenylquinazolin-2(1H)-one] returned an IC50 of less than 200 nM. The same measure for `CNc1nc(=O)n(-c2cnccn2)c2cc(Cl)ccc12`: 200 to 500 nM; for `CNc1nc(=O)n(-c2cccc(C)c2)c2cc(Cl)ccc12` [Example 55]: less than 200 nM; for `O=c1nc(N2CCOCC2)c2ccc(Cl)cc2n1-c1ccccc1` [Example 28, 7-chloro-4-morpholino-1-phenyl-quinazolin-2(1H)-one]: 200 to 500 nM. As for `CNc1nc(=O)n(-c2cccc(CCCO)c2)c2cc(Cl)ccc12` [Example 48, 7-chloro-1-[3-(3-hydroxypropyl)-phenyl]-4-(methylamino)hydro-quinazolin-2-one], the figure is less than 200 nM; as for `CNc1nc(=O)n(-c2cc(O)cc(F)c2)c2cc(Cl)ccc12`, less than 200 nM; as for `CNc1nc(=O)n(-c2ccccc2)c2cc(C#N)ccc12` [Example 50, 4-(methylamino)-2-oxo-1-phenyl-1,2-dihydro-quinazoline-7-carbonitrile], less than 200 nM. In turn, `CNc1nc(=O)n(-c2cccc(O)c2)c2cc(Cl)ccc12` [Example 46, 7-chloro-1-(3-hydroxyphenyl)-4-(methylamino)-hydroquinazolin-2-one] came in with an IC50 of less than 200 nM. As for `CNc1nc(=O)n(-c2ccccc2)c2cc(C(F)(F)F)ccc12` [Example 51, 4-(methylamino)-1-phenyl-7-(trifluoro-methyl)-quinazolin-2(1H)-one], the figure is less than 200 nM. In turn, `CNc1nc(=O)n(-c2ccccc2)c2cc(Cl)ccc12` [Example 2, 7-chloro-4-(methylamino)-1-phenylquinazolin-2(1H)-one] yielded an IC50 of less than 200 nM. The same measure for `CNc1nc(=O)n(-c2ncccn2)c2cc(Cl)ccc12`: less than 200 nM; for `CN(C)c1nc(=O)n(-c2cccc(O)c2)c2cc(Cl)ccc12` [Example 54]: less than 200 nM. As for `CN(C)c1nc(=O)n(-c2cccc(Br)c2)c2cc(Cl)ccc12` [Example 60, 1-(3-bromophenyl)-7-chloro-4-(dimethylamino)quinazolin-2(1H)-one], the figure is less than 200 nM; as for `CN(C)c1nc(=O)n(-c2ccccc2)c2cc(Br)ccc12` [Example 34, 7-bromo-4-(dimethylamino)-1-phenyl-quinazolin-2(1H)-one], less than 200 nM; as for `CNc1nc(=O)n(-c2ccccc2)c2cc(Cl)cc(OC)c12` [Example 70, 7-chloro-5-methoxy-4-(methylamino)-1-phenylquinazolin-2(1H)-one], less than 200 nM. `O=c1nc(NCc2ccccc2)c2ccc(Cl)cc2n1-c1ccccc1` [Example 23, 4-(benzylamino)-7-chloro-1-phenyl-quinazolin-2(1H)-one] gave an IC50 of 200 to 500 nM. In turn, `O=c1nc(N2CCC2)c2ccc(Cl)cc2n1-c1ccccc1` [Example 25, 4-(azetidin-1-yl)-7-chloro-1-phenyl-quinazolin-2(1H)-one] returned an IC50 of less than 200 nM. On to `CNc1nc(=O)n(-c2cn[nH]c2)c2cc(Cl)ccc12`, for which the IC50 is less than 200 nM. Take `CNc1nc(=O)n(-c2ccncc2)c2cc(Cl)ccc12`: the IC50 lay in the range of 1000 to 10000 nM. As for `CN(C)c1nc(=O)n(-c2cc(O)cc(F)c2)c2cc(Cl)ccc12` [Example 37, 4-(dimethylamino)-7-chloro-1-(5-fluoro-3-hydroxyphenyl)hydro-quinazolin-2-one], the figure is less than 200 nM; as for `O=c1nc(N2CCCCC2)c2ccc(Cl)cc2n1-c1ccccc1` [Example 66, 7-chloro-1-phenyl-4-(piperidin-1-yl)-quinazolin-2(1H)-one], less than 200 nM. In turn, `N#CC1CN(c2nc(=O)n(-c3cccc(F)c3)c3cc(Cl)ccc23)C1` [Example 82, 1-(7-chloro-1-(3-fluorophenyl)-2-oxo-1,2-dihydroquinazolin-4-yl)azetidine-3-carbonitrile] gave an IC50 of less than 200 nM. In turn, `CN1CCN(c2nc(=O)n(-c3ccccc3)c3cc(Cl)ccc23)CC1` [Example 27, 7-chloro-4-(4-methylpiperazin-1-yl)-1-phenyl-quinazolin-2(1H)-one] displayed an IC50 of 1000 to 10000 nM. For `COc1nc(=O)n(-c2ccccc2)c2cc(Cl)ccc12` [Example 62, 7-chloro-4-methoxy-1-phenyl-quinazolin-2(1H)-one], the IC50 was 200 to 500 nM.

A word on the IC50: it is the concentration that gives 50% inhibition. Read a low IC50 as inhibition by little substance.

The record behind these values is patent US11046691B1 (IDEAYA BIOSCIENCES, INC., priority 2018, dated 2021).
